Experimental data taken from ChEMBL document CHEMBL4831499, “Benzimidazole-galactosides bind selectively to the Galectin-8 N-Terminal domain: Structure-based design and optimisation” (Eur J Med Chem, 2021).
Calls of active or inactive are those of the source. No cut-off for these calls is given here.

Tests used:
Galectin-8 [1] = target: T1, Galectin-8 (Homo sapiens, UniProt O00214); experiment: Binding affinity to human galactin-8 N terminal domain assessed as dissociation constant by competitive fluorescence polarization assay
T1 sequence (O00214 whole entry): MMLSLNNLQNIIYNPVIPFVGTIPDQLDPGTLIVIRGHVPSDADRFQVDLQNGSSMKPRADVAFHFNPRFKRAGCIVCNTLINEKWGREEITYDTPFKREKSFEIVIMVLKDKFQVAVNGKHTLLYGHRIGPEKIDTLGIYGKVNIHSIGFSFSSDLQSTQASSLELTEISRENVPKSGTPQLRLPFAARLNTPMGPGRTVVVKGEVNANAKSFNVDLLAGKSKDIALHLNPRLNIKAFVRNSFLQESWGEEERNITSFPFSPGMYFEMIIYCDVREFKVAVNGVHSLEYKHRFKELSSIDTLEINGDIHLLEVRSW

Galectin-3 [2] = target: T2, Galectin-3 (Homo sapiens, UniProt P17931); experiment: Binding affinity to human galactin-3 assessed as dissociation constant by competitive fluorescence polarization assay
T2 sequence (P17931 whole entry, the tested form may be a part): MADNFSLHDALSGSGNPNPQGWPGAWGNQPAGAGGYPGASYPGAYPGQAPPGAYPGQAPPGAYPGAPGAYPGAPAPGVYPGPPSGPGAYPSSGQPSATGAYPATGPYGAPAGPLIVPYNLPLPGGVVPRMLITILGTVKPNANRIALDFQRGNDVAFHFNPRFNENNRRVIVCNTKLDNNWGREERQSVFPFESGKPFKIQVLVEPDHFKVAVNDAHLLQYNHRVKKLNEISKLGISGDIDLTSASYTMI

Galectin-8 [3] = target: T1, Galectin-8; experiment: Binding affinity to galectin-8 N-terminal domain (unknown origin)
Galectin-3 [4] = target: T2, Galectin-3; experiment: Binding affinity to galectin-3 (unknown origin)
Galectin-3 [5] = target: T2, Galectin-3; experiment: Binding affinity to human galactin-3 assessed as dissociation constant at 1500 uM by competitive fluorescence polarization assay
Homo sapiens [6] = species: Homo sapiens; experiment: Selectivity ratio of Kd for binding affinity to human galactin-8 N terminal domain to Kd for binding affinity to human galactin-3
Galectin-8 [7] = target: T1, Galectin-8; experiment: Binding affinity to human galactin-8 C terminal domain assessed as dissociation constant by competitive fluorescence polarization assay
Galectin-9 [8] = target: T3, Galectin-9 (Homo sapiens, UniProt O00182); experiment: Binding affinity to human galactin-9 C terminal domain assessed as dissociation constant by competitive fluorescence polarization assay
T3 sequence (O00182 whole entry, the tested form may be a part): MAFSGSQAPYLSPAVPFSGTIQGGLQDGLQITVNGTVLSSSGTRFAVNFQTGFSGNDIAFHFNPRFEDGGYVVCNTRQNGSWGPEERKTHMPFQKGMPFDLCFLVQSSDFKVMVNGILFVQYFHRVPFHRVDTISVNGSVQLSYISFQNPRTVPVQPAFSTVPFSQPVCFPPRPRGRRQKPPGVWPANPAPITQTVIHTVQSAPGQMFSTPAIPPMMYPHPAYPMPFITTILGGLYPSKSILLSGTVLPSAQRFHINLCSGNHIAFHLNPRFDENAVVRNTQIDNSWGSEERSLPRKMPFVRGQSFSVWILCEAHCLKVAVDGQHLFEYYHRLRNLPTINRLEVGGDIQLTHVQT

Galectin-7 = Galectin-7 (Homo sapiens, UniProt P47929); experiment: Binding affinity to human galactin-7 assessed as dissociation constant by competitive fluorescence polarization assay
Chain of Galectin-7 (P47929 whole entry, the tested form may be a part): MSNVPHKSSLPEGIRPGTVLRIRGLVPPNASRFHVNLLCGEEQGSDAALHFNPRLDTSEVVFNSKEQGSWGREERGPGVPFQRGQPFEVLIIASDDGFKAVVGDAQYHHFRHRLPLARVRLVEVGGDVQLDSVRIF

Galectin-4 [9] = target: T4, Galectin-4 (Homo sapiens, UniProt P56470); experiment: Binding affinity to human galactin-4 C terminal domain assessed as dissociation constant by competitive fluorescence polarization assay
T4 sequence (P56470 whole entry): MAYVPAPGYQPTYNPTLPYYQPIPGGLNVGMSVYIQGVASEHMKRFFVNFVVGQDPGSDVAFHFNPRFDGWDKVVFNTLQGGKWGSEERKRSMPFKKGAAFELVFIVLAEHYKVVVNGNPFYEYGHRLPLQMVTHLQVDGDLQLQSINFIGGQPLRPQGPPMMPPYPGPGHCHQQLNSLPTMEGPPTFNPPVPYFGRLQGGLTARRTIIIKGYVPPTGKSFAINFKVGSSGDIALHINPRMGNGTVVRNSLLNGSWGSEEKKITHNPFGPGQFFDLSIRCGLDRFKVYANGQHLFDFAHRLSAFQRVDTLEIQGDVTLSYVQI

Galectin-2 = target: T5, Galectin-2 (Homo sapiens, UniProt P05162); experiment: Binding affinity to human galactin-2 assessed as dissociation constant by competitive fluorescence polarization assay
T5 sequence (P05162 whole entry): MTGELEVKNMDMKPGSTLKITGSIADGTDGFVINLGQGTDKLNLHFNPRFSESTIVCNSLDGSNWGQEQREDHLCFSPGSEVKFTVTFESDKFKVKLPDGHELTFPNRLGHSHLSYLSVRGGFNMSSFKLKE

Galectin-9 [10] = target: T3, Galectin-9; experiment: Binding affinity to human galactin-9 N terminal domain assessed as dissociation constant by competitive fluorescence polarization assay
Homo sapiens [11] = species: Homo sapiens; experiment: Selectivity ratio of Kd for binding affinity to human galactin-9 N terminal domain to binding affinity to human galactin-8 N terminal domain
Galectin-1 = Galectin-1 (Homo sapiens, UniProt P09382); experiment: Binding affinity to human galactin-1 assessed as dissociation constant by competitive fluorescence polarization assay
Chain of Galectin-1 (P09382 whole entry, the tested form may be a part): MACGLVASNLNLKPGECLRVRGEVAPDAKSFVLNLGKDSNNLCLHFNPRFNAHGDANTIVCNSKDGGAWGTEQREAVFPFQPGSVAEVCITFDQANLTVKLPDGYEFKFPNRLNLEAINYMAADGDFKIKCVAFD

Galectin-4 [12] = target: T4, Galectin-4; experiment: Binding affinity to human galactin-4 N terminal domain assessed as dissociation constant by competitive fluorescence polarization assay
[13] = target: T6, Galectin-8 (Homo sapiens) (UniProt O00214); experiment: Binding affinity to human galactin-8 N terminal domain assessed as dissociation constant at 1500 uM by competitive fluorescence polarization assay
T6 sequence (whole entry): T1 sequence (O00214 whole entry)

Homo sapiens [14] = species: Homo sapiens; experiment: Selectivity ratio of Kd for binding affinity to human galactin-9 C terminal domain to binding affinity to human galactin-8 N terminal domain

Structure (SMILES) | Kd (Galectin-8 [1]) | Kd (Galectin-3 [2]) | further results
CO[C@@H]1O[C@H](CO)[C@H](O)[C@H](OCc2nc3cc(C(=O)O)ccc3n2C)[C@H]1O | > 2000 µM | 1100 µM | 
COC(=O)c1ccccc1-n1cc(CO[C@H]2[C@@H](O)[C@@H](CO)O[C@@H](OC)[C@@H]2O)nn1 | 1400 µM | 330 µM | 
CO[C@@H]1O[C@H](CO)[C@H](O)[C@H](OCc2ccc3ccc(C(=O)O)cc3n2)[C@H]1O |  |  | Kd (Galectin-8 [3]): 110 µM; Kd (Galectin-3 [4]): 380 µM
CO[C@@H]1O[C@H](CO)[C@H](O)[C@H](OCc2nc3ccccc3[nH]2)[C@H]1O | 860 µM | 1500 µM | 
CO[C@@H]1O[C@H](CO)[C@H](O)[C@H](OCc2cn(-c3ccc(C(=O)O)cc3)nn2)[C@H]1O | 1300 µM | 190 µM | 
COC(=O)c1cccc(-n2cc(CO[C@H]3[C@@H](O)[C@@H](CO)O[C@@H](OC)[C@@H]3O)nn2)c1 | 810 µM | 510 µM | 
CO[C@@H]1O[C@H](CO)[C@H](O)[C@H](OCc2ccc3ccccc3n2)[C@H]1O |  |  | Kd (Galectin-8 [3]): 700 µM; Kd (Galectin-3 [4]): 620 µM
COC(=O)c1ccc2nc(CO[C@H]3[C@@H](O)[C@@H](CO)O[C@@H](OC)[C@@H]3O)[nH]c2c1 | 1200 µM | 1600 µM | 
COC(=O)c1ccc(-n2cc(CO[C@H]3[C@@H](O)[C@@H](CO)O[C@@H](Sc4ccc(C)cc4)[C@@H]3O)nn2)cc1 | 940 µM | > 2000 µM | 
COC(=O)c1ccc2nc(CO[C@H]3[C@@H](O)[C@@H](CO)O[C@@H](OC)[C@@H]3O)n(C)c2c1 | 1100 µM |  | Activity (Galectin-3 [5]): inactive
Cc1ccc(S[C@@H]2O[C@H](CO)[C@H](O)[C@H](OCc3cn(-c4ccccc4C(=O)O)nn3)[C@H]2O)cc1 | 1200 µM | 690 µM | 
CO[C@@H]1O[C@H](CO)[C@H](O)[C@H](OCc2cn(-c3cccc(C(=O)O)c3)nn2)[C@H]1O | 640 µM | 500 µM | 
CO[C@@H]1O[C@H](CO)[C@H](O)[C@H](OCc2nc3ccc(C(=O)O)cc3[nH]2)[C@H]1O | 310 µM | 590 µM | 
COC(=O)c1ccc(-n2cc(CO[C@H]3[C@@H](O)[C@@H](CO)O[C@@H](OC)[C@@H]3O)nn2)cc1 | > 2000 µM | 700 µM | 
CO[C@@H]1O[C@H](CO)[C@H](O)[C@H](OCc2nc3ccccc3s2)[C@H]1O | 870 µM | 510 µM | 
CO[C@@H]1O[C@H](CO)[C@H](O)[C@H](OCc2nc3ccc(C(=O)O)cc3n2C)[C@H]1O | 190 µM | 1400 µM | Selectivity ratio (Homo sapiens [6]): 7
Cc1ccc(S[C@@H]2O[C@H](CO)[C@H](O)[C@H](OCc3cn(-c4ccc(C(=O)O)cc4)nn3)[C@H]2O)cc1 | 1500 µM | 230 µM | 
Cc1ccc(S[C@@H]2O[C@H](CO)[C@H](O)[C@H](OCc3cn(-c4cccc(C(=O)O)c4)nn3)[C@H]2O)cc1 | 760 µM | 250 µM | 
O=C(O)c1ccc2ccc(CO[C@@H]3[C@@H](O)[C@@H](Sc4ccc(Cl)c(Cl)c4)O[C@H](CO)[C@@H]3O)nc2c1 |  |  | Kd (Galectin-8 [3]): 1.5 µM; Kd (Galectin-3 [4]): 1.2 µM
CCOC(=O)c1ccc2c(c1)nc(CO[C@H]1[C@@H](O)[C@@H](CO)O[C@@H](OC)[C@@H]1O)n2C | 1600 µM | 2000 µM | 
Cn1c(CO[C@@H]2[C@@H](O)[C@@H](Sc3ccc(Cl)c(Cl)c3)O[C@H](CO)[C@@H]2O)nc2ccc(C(=O)O)cc21 | 1.8 µM | 5 µM | Kd (Galectin-8 [7]): 760 µM; Kd (Galectin-9 [8]): 45 µM; Kd (Galectin-7): 190 µM; Kd (Galectin-4 [9]): 120 µM; Selectivity ratio (Homo sapiens [6]): 25; Kd (Galectin-2): 220 µM; Kd (Galectin-9 [10]): 16 µM; Selectivity ratio (Homo sapiens [11]): 25; Kd (Galectin-1): 130 µM; Kd (Galectin-4 [12]): 130 µM
CO[C@@H]1O[C@H](CO)[C@H](O)[C@H](OCc2cn(-c3ccccc3C(=O)O)nn2)[C@H]1O |  | 470 µM | Activity [13]: inactive
CO[C@@H]1O[C@H](CO)[C@H](O)[C@H](OCc2nc3ccccc3o2)[C@H]1O | 1600 µM | 620 µM | 
CO[C@@H]1O[C@H](CO)[C@H](O)[C@H](OCc2nc3ccccc3n2C)[C@H]1O | 1200 µM | 1600 µM | 
O=C(O)c1ccc2nc(CO[C@@H]3[C@@H](O)[C@@H](Sc4ccc(Cl)c(Cl)c4)O[C@H](CO)[C@@H]3O)[nH]c2c1 | 2.8 µM | 4.1 µM | Selectivity ratio (Homo sapiens [14]): 9; Kd (Galectin-8 [7]): 450 µM; Kd (Galectin-9 [8]): 18 µM; Kd (Galectin-7): 43 µM; Kd (Galectin-4 [9]): 160 µM; Kd (Galectin-2): 100 µM; Kd (Galectin-9 [10]): 13 µM; Selectivity ratio (Homo sapiens [11]): 5; Kd (Galectin-1): 87 µM; Kd (Galectin-4 [12]): 78 µM
COC(=O)c1cccc(-n2cc(CO[C@H]3[C@@H](O)[C@@H](CO)O[C@@H](Sc4ccc(C)cc4)[C@@H]3O)nn2)c1 | 1200 µM | 490 µM | 
COC(=O)c1ccccc1-n1cc(CO[C@H]2[C@@H](O)[C@@H](CO)O[C@@H](Sc3ccc(C)cc3)[C@@H]2O)nn1 | 1100 µM | > 2000 µM | 
